Reference: patent publication US20120225093A1, “Abrogating HIV-1 Infection via Drug-Induced Reactivation of Apoptosis” (UNIVERSITY OF MEDICINE AND DENTISTRY OF NEW JERSEY, priority 2010, published 2012)

Legend:
[1] = tested on: CMV immediate early promoter; assay: CMV promoter-driven luciferase (pCMV-Ren, pCMV-FF) in 293T cells; format: cell-based, cytomegalovirus; conditions: for CMV-driven Renilla luciferase expression: pCMV-Ren
Protocol: Plasmids were introduced into 2×10^5 293T cells by transfection using Lipofectamine 2000 (Invitrogen) according to the manufacturer's instructions. Compounds (such as CPX or DEF) were added simultaneously. Cells were harvested at 12 hr post-transfection, washed with PBS, lysed in 0.15 ml of 1× passive lysis buffer (Promega), and assayed for luciferase activity using the Promega dual luciferase reporter system according to the manufacturer's instructions. Jurkat cells (1×10^6 cells) were transfected using FuGENE 6 (Roche) according to the manufacturer's instructions and assayed in a similar fashion after pelleting.
293T cells were selected as a model system to explore the relationship between the drugs, eIF5A and HIV gene expression. These cells efficiently transcribe HIV-1 genes from molecular clones as well as subviral constructs, allowing for early detection of changes in HIV gene expression. To establish the system, assays were carried out to examine the effect of CPX and DEF on the expression of firefly luciferase (FF) from the HIV-1 molecular clone, pNL4-3-LucE-, engineered to carry the FF gene in place of the viral nef gene. The molecular clone was transfected into 293T cells together with the pCMV-Ren vector that expresses Renilla luciferase (Ren) from the cytomegalovirus (CMV) immediate early promoter as a control for transfection efficiency and non-specific effects of the compounds. Dual luciferase assays were conducted at 12 hr post-transfection and results are expressed as relative luciferase activity (FF:Ren). […] Assays therefore were carried out to characterize the action of CPX and DEF on eIF5A and HIV gene expression in 293T cells during the first 12 to 24 hr of drug treatment.

293T cells = assay: Apoptosis and viability of untransfected 293T cells (annexin V / 7AAD); format: cell-based, human; conditions: within 24 hr at concentrations used
Protocol: The cells were grown in DME medium (Sigma) and Jurkat cells in RPMI medium (Sigma), both supplemented with penicillin, streptomycin and 8% FBS. Quantitation of apoptosis and viability was performed with a BD FACSCalibur™ system using Annexin V-PE Apoptosis Detection Kit I (BD Biosciences, San Jose Calif.).

eIF5A:DHS complex = target: T1, eIF5A:DHS complex (Homo sapiens, UniProt P49366); assay: Co-immunoprecipitation of eIF5A with DHS from 293T cell extracts; format: cell-based; conditions: 293T transfected with FLAG-DHS
T1 construct: expressed in transfected cells; host or cells: 293T cells (FLAG-DHS transfected, eIF5A endogenous)
T1 sequence (P49366 1-369): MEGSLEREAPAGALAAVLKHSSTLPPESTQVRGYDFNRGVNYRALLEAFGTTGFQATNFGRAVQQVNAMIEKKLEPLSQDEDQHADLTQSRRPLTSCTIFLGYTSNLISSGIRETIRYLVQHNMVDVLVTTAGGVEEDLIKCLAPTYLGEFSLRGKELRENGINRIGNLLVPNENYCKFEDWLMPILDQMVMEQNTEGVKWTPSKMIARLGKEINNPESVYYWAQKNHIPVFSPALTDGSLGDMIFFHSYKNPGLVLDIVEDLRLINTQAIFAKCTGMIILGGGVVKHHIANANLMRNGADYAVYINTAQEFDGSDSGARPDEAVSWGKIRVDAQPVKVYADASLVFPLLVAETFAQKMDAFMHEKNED
Protocol: Immunoprecipitation and immunoblotting experiments were carried out as described previously in Hoque et al. Mol Cell Biol 2003, 23:1688-1702.
eIF5A forms tight complexes with its modifying enzymes. Unmodified eIF5A (lysine-50) immunoprecipitates with DHS and deoxyhypusyl-eIF5A interacts with DOHH in vitro. It was discovered that the deoxyhypusyl-eIF5A:DOHH complex formed in vivo can be detected by immunoprecipitation from cell extracts. Taking advantage of this finding, the effects of the drugs on the enzyme-substrate interaction were tested. FLAG-eIF5A was expressed in 293T cells and complexes that immunoprecipitated with anti-FLAG antibody were immunoblotted and probed with antibodies against DOHH. […] As a further control, the DHS inhibitor GC7 was included in this assay. […] As expected, none of the compounds affected the immunoprecipitation of FLAG-eIF5A (FIG. 2D, middle panel) or the expression of endogenous eIF5A (FIG. 2D, bottom panel). Reciprocally, the interaction between endogenous eIF5A and tagged DOHH was inhibited by CPX and DEF (FIG. 2E, right). Similarly, the interaction of endogenous eIF5A with tagged DHS was inhibited by GC7 (FIG. 2E, left) but resistant to CPX and DEF. It is concluded that CPX and DEF, but not P2 or DFOX, target DOHH and inhibit its interaction with its substrate, deoxyhypusylelF5A.

uninfected H9 cells = assay: Mitochondrial membrane potential (JC-1) in uninfected H9 cells; format: cell-based; conditions: 30 μM CPX; 200 μM DEF
Protocol: The potential across the mitochondrial membrane of live cells was determined flow-cytometrically with the lipophilic cationic fluorochrome JC-1 (5,5′,6,6′-tetrachloro-1,1′,3,3′-tetraethylbenzimidazolcarbocyanine iodide) immediately after sample harvest (BD™ Mitoscreen Kit, BD Biosciences; San Diego, Calif.). DNA fragmentation was quantified flow-cytometrically, using a TUNEL (terminal deoxynucleotide transferase dUTP nick end-labeling) assay (APO-BRDU™; Phoenix Flow Systems; San Diego, Calif.) and a dual-color assay for annexin V binding and 7-AAD exclusion (Annexin V-PE 7-AAD Apoptosis Detection Kit I™; BD Biosciences Pharmingen, San Jose, Calif.). The apoptotic volume decrease of cells was assessed by the reduction of their diameter (VI-CELL™; Beckman Coulter; Fullerton, Calif.).
Next the effect of the drugs on apoptosis in H9 and H9-HIV cells was examined. Both CPX and DEF increased the collapse of Δψ in a manner that was dose-dependent and accentuated by viral infection (FIGS. 8E and F). […] Thus, exposure to CPX or DEF counteracted the HIV-mediated reduction of Δψ collapse and rendered infected cells more susceptible than uninfected cells to an early step in drug-induced apoptosis.

[2] = human, in vivo, cited from earlier work

| Compound | expression from pCMV-FF (construct I) [1] | CMV-driven Renilla luciferase expression [1] | 293T cell death (293T cells) | interaction of endogenous eIF5A with tagged DHS (eIF5A:DHS complex) | concentrations needed for enhanced Δψ collapse (uninfected H9 cells) | concentration in serum ([2]; po) [µM] | plasma levels ([2]; po) | systemic absorption [2] |
| --- | --- | --- | --- | --- | --- | --- | --- | --- |
| Cc1c(O)c(=O)ccn1C [DEF, 3-hydroxy-1,2-dimethylpyridin-4(1H)-one] | unaffected | no effect on CMV-driven Renilla luciferase expression | marginal 293T cell death | resistant | higher concentrations were required | ≥ 250 | up to 350 μM | – |
| Cc1cc(C2CCCCC2)n(O)c(=O)c1 [CPX, 6-cyclohexyl-1-hydroxy-4-methylpyridin-2[1H]-one] | unaffected | no effect on CMV-driven Renilla luciferase expression | marginal 293T cell death | resistant | higher concentrations were required | – | – | miniscule systemic absorption |
